Assay results taken from US9255101B2 (BIOPROJECT, priority 2012, dated 2016).
pIC50, pKi: −log10 of the molar value. Counter-ions that a name gives are not always drawn.

What was measured:
[1] = target: T1, human H4 receptor (Homo sapiens, UniProt Q9H3N8); test: biochemical
[2] = target: T1, human H4 receptor; test: biochemical; remark: listed apart in the source
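Wherever pIC50 is given: membranes from SH-SY5Y cells with stable human H4 receptor expression, incubated with GDP 10 µM, radioactivity retained on filters counted by liquid scintillation.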
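Wherever pKi is given: radioligand displacement of a [3H]-labelled ligand from membranes of CHO cells stably expressing human H4 receptor, bound radioactivity counted on filters by liquid scintillation.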

T1 sequence (Q9H3N8 whole entry): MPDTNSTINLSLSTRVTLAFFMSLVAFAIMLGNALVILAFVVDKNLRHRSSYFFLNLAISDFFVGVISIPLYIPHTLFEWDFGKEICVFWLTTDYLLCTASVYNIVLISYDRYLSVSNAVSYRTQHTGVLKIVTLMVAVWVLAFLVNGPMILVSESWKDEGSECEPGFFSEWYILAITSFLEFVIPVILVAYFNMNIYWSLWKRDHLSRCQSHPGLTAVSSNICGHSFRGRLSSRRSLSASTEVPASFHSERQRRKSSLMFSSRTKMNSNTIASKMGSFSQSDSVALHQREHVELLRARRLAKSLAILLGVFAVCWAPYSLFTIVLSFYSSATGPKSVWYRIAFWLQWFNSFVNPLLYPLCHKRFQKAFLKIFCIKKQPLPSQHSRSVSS

Row | SMILES | pKi [1] | pIC50 [2]
1 | Cc1c(-c2ccc(Br)cc2)nc2n1CCc1ccccc1C2OC1CCN(C)CC1 (centres unmarked) [Example 122, 2-(4-bromophenyl)-1-methyl-4-(1-methylpiperidin-4-yloxy)-9,10-dihydro-4H-3,10a-diaza-benzo[f]azulene] | > 7.52 | > 7.52
2 | CN1CCC(OC2c3ccccc3CCn3cc(-c4ccc(CN5CCCCCC5=O)cc4)nc32)CC1 (centres unmarked) [Example 188, 1-{4-[4-(1-methylpiperidin-4-yloxy)-9,10-dihydro-4H-3,10a-diaza-benzo[f]azulen-2-yl]benzyl}-azepan-2-one] | > 6.52 | > 6.52
3 | Cc1ccc(-c2cn3c(n2)C(OC2CCN(C)CC2)c2ccccc2CC3)c(Cl)c1 (centres unmarked) [Example 75, 2-(2-chloro-4-methylphenyl)-4-(1-methylpiperidin-4-yloxy)-9,10-dihydro-4H-3,10a-diaza-benzo[f]azulene oxalate] | > 6.52 | > 7.52
4 | CN1CCC(OC2c3ccccc3CCn3cc(C=CCc4ccccc4)nc32)CC1 (centres unmarked) [Example 76, 4-(1-methylpiperidin-4-yloxy)-2-(3-phenylpropenyl)-9,10-dihydro-4H-3,10a-diaza-benzo[f]azulene oxalate] | > 7.52 | > 6.52
5 | CSc1ccc(-c2cn3c(n2)C(OC2CCN(C)CC2)c2ccccc2CC3)cc1 (centres unmarked) [Example 20, 4-(1-methylpiperidin-4-yloxy)-2-(4-methylsulfanylphenyl)-9,10-dihydro-4H-3,10a-diaza-benzo[f]azulene] | > 7.52 | > 7.52
6 | CN1CCC(OC2c3ccccc3CCn3cc(-c4ccc(N(C)C(=O)OC(C)(C)C)cc4)nc32)CC1 (centres unmarked) [Example 97, methyl-{4-[4-(1-methylpiperidin-4-yloxy)-9,10-dihydro-4H-3,10a-diaza-benzo[f]azulen-2-yl]-phenyl}-carbamic acid tert-butyl ester oxalate] | > 7.52 | > 7.52
7 | CN1CCC(OC2c3ccccc3CCn3cc(-c4ccsc4)nc32)CC1 (centres unmarked) [Example 12, 4-(1-methylpiperidin-4-yloxy)-2-thiophen-3-yl-9,10-dihydro-4H-3,10a-diaza-benzo[f]azulene] | > 6.52 | > 6.52
8 | CN1CCC(OC2c3ccccc3CCn3cc(C4=CCN(C(=O)OC(C)(C)C)CC4)nc32)CC1 (centres unmarked) [Example 74, 4-[4-(1-methylpiperidin-4-yloxy)-9,10-dihydro-4H-3,10a-diaza-benzo[f]azulen-2-yl]-3,6-dihydro-2H-pyridine-1-carboxylic acid tert-butyl ester oxalate] | > 6.52 | > 6.52
9 | CC(C)c1ccc(-c2cn3c(n2)C(OC2CCN(C)CC2)c2ccccc2CC3)cc1 (centres unmarked) [Example 32, 2-(4-isopropylphenyl)-4-(1-methyl-piperidin-4-yloxy)-9,10-dihydro-4H-3,10a-diaza-benzo[f]azulene oxalate] | > 6.52 | > 6.52
10 | CN1CCC(OC2c3ccccc3CCn3c2nc(-c2ccccc2)c3Cl)CC1 (centres unmarked) [Example 134, 1-chloro-4-(1-methylpiperidin-4-yloxy)-2-phenyl-9,10-dihydro-4H-3,10a-diaza-benzo[f]azulene] | > 7.52 | > 7.52
11 | CN1CCC(OC2c3ccccc3CCn3cc(C=CCOc4ccccc4)nc32)CC1 (centres unmarked) [Example 121, 4-(1-methylpiperidin-4-yloxy)-2-(3-phenoxypropenyl)-9,10-dihydro-4H-3,10a-diaza-benzo[f]azulene] | > 7.52 | > 7.52
12 | CN1CCC(OC2c3ccccc3CCn3c2nc(CCCCCc2ccccc2)c3Cl)CC1 (centres unmarked) [Example 139, 1-chloro-4-(1-methylpiperidin-4-yloxy)-2-(5-phenylpentyl)-9,10-dihydro-4H-3,10a-diaza-benzo[f]azulene oxalate] | > 7.52 | > 7.52
13 | Cc1cccc(-c2cn3c(n2)C(OC2CCN(C)CC2)c2ccccc2CC3)c1 (centres unmarked) [Example 6, 4-(1-methyl-piperidin-4-yloxy)-2-m-tolyl-9,10-dihydro-4H-3,10a-diaza-benzo[f]azulene] | > 6.52 | > 6.52
